assay: The compound was tested for the inhibition of Arachidonate 5-lipoxygenase purified from porcine leukocytes.

IC50 [nM]	Compound
175	CCCCCCCCCCCCc1c(-c2ccc(O)c(O)c2)oc2cc(OC)c(OC)c(OC)c2c1=O
240	CCCCCCCCCCCCCCc1c(-c2ccc(O)c(O)c2)oc2cc(OC)c(OC)c(OC)c2c1=O
340	CCCCCCCCCCCCc1c(-c2ccc(O)c(O)c2)oc2c(OC)c(OC)cc(O)c2c1=O
190	CCCCCCCCCCc1c(-c2ccc(O)c(O)c2)oc2cc(OC)c(OC)c(OC)c2c1=O
210	CCCCCCCCCCCCc1c(-c2ccc(O)c(O)c2)oc2cc(OC)c(OC)c(=O)c-2c1O
250	CCCCCCCCc1c(-c2ccc(O)c(O)c2)oc2cc(OC)c(OC)c(OC)c2c1=O
500	CCCCCCCCCCCCCCc1c(-c2ccc(O)c(O)c2)oc2c(OC)c(OC)cc(O)c2c1=O

assay: Inhibition of arachidonate 5-lipoxygenase purified from porcine leukocytes.

IC50 [nM]	Compound
115	CCCCCCCCCCCCCCc1c(-c2ccc(O)c(O)c2)oc2c(OC)c(OC)cc(OC)c2c1=O
135	CCCCCCCCCCc1c(-c2ccc(O)c(O)c2)oc2c(OC)c(OC)cc(O)c2c1=O
86	CCCCCCCCCCc1c(-c2ccc(O)c(O)c2)oc2c(OC)c(OC)cc(OC)c2c1=O
62	CCCCCCCCc1c(-c2ccc(O)c(O)c2)oc2c(OC)c(OC)cc(OC)c2c1=O
1500	CCCCCCCCCCCCCCCCc1c(-c2ccc(O)c(O)c2)oc2c(OC)c(OC)cc(O)c2c1=O
105	CCCCCCCCCCCCc1c(-c2ccc(O)c(O)c2)oc2c(OC)c(OC)cc(OC)c2c1=O
58	CCCCCCc1c(-c2ccc(O)c(O)c2)oc2c(OC)c(OC)cc(OC)c2c1=O

Further lines, the compound ahead of its results:

Compound	IC50 [nM]
CCCCCCCCCCCCCCc1c(-c2ccc(O)c(O)c2)oc2cc(OC)c(OC)c(=O)c-2c1O	870
CCCCCCOc1c(OC)c(OC)cc2oc(-c3ccc(O)c(O)c3)c(OC)c(=O)c12	280
CCCCCCCCCCCCCCCCc1c(-c2ccc(O)c(O)c2)oc2c(OC)c(OC)cc(OC)c2c1=O	500
CCCCCCOc1c(OC)c(OC)cc2oc(-c3ccc(O)c(O)c3)c(O)c(=O)c12	1350
CCCCCCOc1cc(OC)c(OC)c2oc(-c3ccc(O)c(O)c3)c(O)c(=O)c12	770
CCCCCCCCCCCCCCCCc1c(-c2ccc(O)c(O)c2)oc2cc(OC)c(OC)c(OC)c2c1=O	950
COc1cc(O)c2c(=O)c(C)c(-c3ccc(O)c(O)c3)oc2c1OC	300
CCCCCCOc1c(-c2ccc(O)c(O)c2)oc2c(OC)c(OC)cc(OC)c2c1=O	88
CCCCCCOc1c(-c2ccc(O)c(O)c2)oc2cc(OC)c(OC)c(OC)c2c1=O	126
CCCCCCc1c(-c2ccc(O)c(O)c2)oc2cc(OC)c(OC)c(=O)c-2c1O	110
CCCCCCCCCCCCCCCCc1c(-c2ccc(O)c(O)c2)oc2cc(OC)c(OC)c(=O)c-2c1O	1250
CCCCc1c(-c2ccc(O)c(O)c2)oc2cc(OC)c(OC)c(=O)c-2c1O	265
COc1cc2oc(-c3ccc(O)c(O)c3)c(C)c(=O)c2c(O)c1OC	480
CCCCc1c(-c2ccc(O)c(O)c2)oc2c(OC)c(OC)cc(OC)c2c1=O	100
